Laboratory results published in article PMC7747594, “Protease-activated receptor-2 ligands reveal orthosteric and allosteric mechanisms of receptor inhibition” (Communications Biology, 2020).
Several values for one entry are separate records, joined by “and”; a condition that tells them apart may be missing. Equal values may be shown once. Each block holds one compound with its values, some of them ahead of it.

Assays:
hPAR2 = target: T1, hPAR2 (Homo sapiens, UniProt P55085); experiment: β-arrestin-2 recruitment, agonist mode, U2OS-hPAR2 cells; assay type: cell-based; parameters: agonist response (Fig 2f), individual replicate values: unit not given here
T1 sequence (P55085 26-397): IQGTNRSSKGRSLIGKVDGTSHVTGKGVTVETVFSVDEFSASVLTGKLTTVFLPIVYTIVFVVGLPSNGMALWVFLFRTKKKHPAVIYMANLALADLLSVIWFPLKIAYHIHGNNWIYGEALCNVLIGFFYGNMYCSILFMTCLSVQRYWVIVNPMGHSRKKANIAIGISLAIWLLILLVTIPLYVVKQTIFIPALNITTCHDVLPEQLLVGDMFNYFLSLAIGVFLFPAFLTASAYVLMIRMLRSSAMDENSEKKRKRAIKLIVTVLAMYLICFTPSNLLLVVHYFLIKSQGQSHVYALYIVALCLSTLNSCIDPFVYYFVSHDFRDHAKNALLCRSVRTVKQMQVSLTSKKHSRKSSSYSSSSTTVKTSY

neutrophils = experiment: Immunohistochemistry, neutrophil elastase-positive (NE+ve) neutrophils in rat paw; assay type: in vivo; settings: for NE +ve cells (% max): 2f-induced rat paw oedema, individual animals (Figure 5h); for decrease of NE+ve cells by 2f-LIGRLO-NH2: pre-treatment, 30 min
Method: Tissues were then embedded with Optimal Cutting Temperature compound (OCT, Sakura Finetek, USA) and stored at −80 °C before making cryo-sections for histological analysis. Frozen sections (5 µm) were made using a cryostat-microtome (Leica Biosystems, Germany). […] Slides were then dehydrated and mounted in DPX mountant (Sigma-Aldrich, USA). For immunohistochemistry, slides were briefly rinsed with PBS to remove OCT. Except for tryptase staining, antigen retrieval was performed by incubating slides in citrate buffer (0.01 M, pH 6) at 95 °C for 20 min. They were then cooled down briefly and incubated with blocking medium (PBS, 0.1% Triton X-100, 10% horse serum) for 1 h at room temperature in a humidity chamber. Samples were incubated with primary antibody medium (PBS, 0.1% Triton X-100, 4% horse serum; 1:100 primary antibody including – histamine, neutrophil elastase or ED1 antibodies) overnight at 4 °C. The next day, samples were washed with PBS and incubated with the secondary antibody medium (PBS, 0.1% Triton X-100, 4% horse serum, detection antibody 1:200) for 2 h at room temperature. For tryptase staining, slides were incubated with primary antibody medium (as above with tryptase antibody at 1:100 dilution) for 4 h, then the secondary antibody medium for 2 h. Finally, slides were dried, counterstained with DAPI (Invitrogen, Australia), and sealed with clear nail polish. Primary antibodies for tryptase (AA1, ab2378, Abcam, Australia), histamine (H7403, Sigma-Aldrich, USA), neutrophil elastase (ab21595, Abcam, Australia) and ED1 (ab31630, Abcam, Australia) were purchased from commercial sources. Secondary detection antibody was purchased from Abcam, Australia.

- EC50 (hPAR2; U2OS-hPAR2, mean ± s.e.m., read-out: β-arrestin pEC50 (converted)): 251 nM
SMILES: CNC(=O)[C@H]1CC[C@@H](NC(=O)[C@H](CC2CCCCC2)NC(=O)c2cn(Cc3ccccc3)nn2)c2ccccc21 [AZ2429]
- agonist response (Fig 2f), individual replicate values (hPAR2; [compound],M -4.52288): 136.003 and 128.564 and 133.913 and 56.5764 and 110.418 and 80.4631 and 65.432 and 80.8727 and 70.3477 and 91.7141 and 102.077 and 89.1574
- agonist response (Fig 2f), individual replicate values (hPAR2; [compound],M -5): 131.19 and 120.248 and 136.172 and 56.4288 and 102.534 and 68.8992 and 68.7979 and 70.6147 and 68.8215 and 77.979 and 96.7821 and 92.1516
- agonist response (Fig 2f), individual replicate values (hPAR2; [compound],M -5.47712): 112.303 and 119.541 and 118.68 and 44.4899 and 108.952 and 63.9568 and 68.1752 and 70.9487 and 60.988 and 94.267 and 96.9331 and 92.4234
- agonist response (Fig 2f), individual replicate values (hPAR2; [compound],M -5.95424): 118.57 and 119.322 and 126.112 and 66.9594 and 124.296 and 94.3698 and 67.5375 and 74.2944 and 72.0498 and 104.83 and 109.824 and 109.97
- agonist response (Fig 2f), individual replicate values (hPAR2; [compound],M -6.43136): 125.477 and 105.411 and 104.73 and 109.603 and 104.761 and 111.037 and 54.7204 and 64.3421 and 52.5276 and 82.0218 and 82.1308 and 78.7213
- agonist response (Fig 2f), individual replicate values (hPAR2; [compound],M -6.90849): 100.424 and 92.4091 and 99.838 and 93.2711 and 86.5209 and 104.138 and 29.1218 and 35.2385 and 27.4797 and 47.1154 and 56.0608 and 47.0166
- agonist response (Fig 2f), individual replicate values (hPAR2; [compound],M -7.38561): 86.365 and 78.1735 and 66.0975 and 85.2162 and 75.5111 and 91.061 and 20.8827 and 22.73 and 14.0732 and 38.9752 and 29.9961 and 25.8403
- agonist response (Fig 2f), individual replicate values (hPAR2; [compound],M -7.86273): 50.0191 and 38.4004 and 28.0445 and 63.4341 and 52.1546 and 58.7101 and 8.067 and 10.1642 and 0.7234 and 8.708 and 10.6741 and 5.686
- agonist response (Fig 2f), individual replicate values (hPAR2; [compound],M -8.33985): 11.2254 and 10.5953 and 6.644 and 26.1895

SMILES: C[C@@H](C1CCCCC1)n1c(-c2cc3c(cc2Br)OCO3)nc2cc(C(=O)Nc3ccc(C#N)cc3)ccc21 [AZ3451]
- NE +ve cells (% max) (neutrophils): 135.782 % max and 55.9949 % max and 85.0488 % max and 57.3155 % max
- decrease of NE+ve cells by 2f-LIGRLO-NH2 (neutrophils): partially inhibited

SMILES: CCCc1cc(F)ccc1C(O)c1ncc[nH]1 (centres unmarked) [AZ8838]
- NE +ve cells (% max) (neutrophils): 83.5679 % max and 62.4433 % max and 139.912 % max and 107.932 % max and 66.1651 % max
- decrease of NE+ve cells by 2f-LIGRLO-NH2 (neutrophils): partially inhibited
